Earlier results as cited in patent publication US20230149295A1, “INFLAMMATORY BOWEL DISEASE STEM CELLS, AGENTS WHICH TARGET IBD STEM CELLS, AND USES RELATED THERETO” (University of Houston System, priority 2020, published 2023).

How the values were obtained:
STAT3 = STAT3 (Homo sapiens, UniProt P40763); details: cell-free assays; read-out: IC50 for inhibition of STAT3 activation and nuclear translocation
STAT1 = molecular target: T1, STAT1 (Homo sapiens, UniProt P42224); details: cell-free assays
T1 sequence (P42224 1-750): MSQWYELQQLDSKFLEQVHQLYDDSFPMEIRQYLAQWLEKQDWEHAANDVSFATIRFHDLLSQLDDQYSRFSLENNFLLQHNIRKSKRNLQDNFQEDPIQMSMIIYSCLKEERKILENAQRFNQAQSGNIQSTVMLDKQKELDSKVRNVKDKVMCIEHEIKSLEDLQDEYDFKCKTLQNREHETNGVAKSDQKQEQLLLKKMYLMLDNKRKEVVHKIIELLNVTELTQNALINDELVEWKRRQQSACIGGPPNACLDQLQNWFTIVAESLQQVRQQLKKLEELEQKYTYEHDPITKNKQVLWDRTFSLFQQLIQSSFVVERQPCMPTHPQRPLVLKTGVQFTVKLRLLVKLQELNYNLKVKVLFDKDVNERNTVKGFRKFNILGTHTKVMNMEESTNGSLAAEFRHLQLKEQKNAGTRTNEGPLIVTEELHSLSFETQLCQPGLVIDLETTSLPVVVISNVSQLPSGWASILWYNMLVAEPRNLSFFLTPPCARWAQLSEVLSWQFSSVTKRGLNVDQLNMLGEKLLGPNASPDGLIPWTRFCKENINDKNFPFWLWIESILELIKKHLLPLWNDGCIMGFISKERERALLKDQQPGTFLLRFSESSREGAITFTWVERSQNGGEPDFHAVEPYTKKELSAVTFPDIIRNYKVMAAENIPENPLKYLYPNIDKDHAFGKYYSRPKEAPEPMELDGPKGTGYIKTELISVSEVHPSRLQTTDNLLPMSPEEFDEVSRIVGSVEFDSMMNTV

Chain of STAT3 (P40763 whole entry, species assumed): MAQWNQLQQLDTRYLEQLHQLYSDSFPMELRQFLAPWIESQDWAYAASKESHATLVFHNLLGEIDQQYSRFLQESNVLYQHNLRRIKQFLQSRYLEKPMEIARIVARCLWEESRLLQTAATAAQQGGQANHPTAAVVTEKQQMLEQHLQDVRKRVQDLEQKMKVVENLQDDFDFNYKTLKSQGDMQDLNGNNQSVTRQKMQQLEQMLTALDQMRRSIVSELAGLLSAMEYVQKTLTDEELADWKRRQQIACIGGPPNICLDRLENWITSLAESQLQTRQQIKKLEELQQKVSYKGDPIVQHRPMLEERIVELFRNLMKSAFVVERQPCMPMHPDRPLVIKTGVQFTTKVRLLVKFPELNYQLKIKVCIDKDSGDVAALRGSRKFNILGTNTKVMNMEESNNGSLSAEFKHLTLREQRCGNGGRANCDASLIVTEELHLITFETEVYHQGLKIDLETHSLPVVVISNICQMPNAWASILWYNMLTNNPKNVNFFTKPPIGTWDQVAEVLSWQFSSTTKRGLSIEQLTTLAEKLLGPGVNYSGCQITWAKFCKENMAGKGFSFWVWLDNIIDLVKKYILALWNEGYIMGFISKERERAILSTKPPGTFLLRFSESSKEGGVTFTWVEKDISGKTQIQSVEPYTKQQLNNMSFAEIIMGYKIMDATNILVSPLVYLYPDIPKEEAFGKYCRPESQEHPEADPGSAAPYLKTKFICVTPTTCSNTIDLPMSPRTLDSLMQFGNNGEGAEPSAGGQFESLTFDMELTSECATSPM

Structure (SMILES) | inhibition of ERBB2 phosphorylation (T7981) (ERBB2) | IC50 (STAT3) | selectivity for STAT3 over STAT1 (STAT1)
C=CC(=O)Nc1cccc(Sc2nc(Nc3ccc(N4CCN(C)CC4)cc3)ncc2Cl)c1 [WZ8040] | does not inhibit | – | –
O=[N+]([O-])c1ccc2c(c1)S(=O)(=O)C=C2 [Stattic] | – | 5.1 µM | highly selectivity over STAT1
